Here are results for one molecule from US12616697B2, “Methods of treatment with myosin modulator” (MyoKardia, Inc., priority 2020, dated 2026).

“And” between values parts separate entries of the source, which are not always exact repeats. Equal entries are not always repeated.

Data set [1] has as its system adults with symptomatic oHCM. Put plainly: PIONEER-OLE Phase 2 open-label extension study of mavacamten. It counts as in vivo. The method, then:
All subjects were started on a dose of 5 mg QD.
To maximize safety, the starting dose will be 5 mg for all subjects. Subjects will return at Week 4 (±4 days) for a plasma PK sample to measure drug levels and to undergo echocardiography to determine LVOT gradient (at rest, after a Valsalva maneuver, and after exercise) and left ventricular ejection fraction (LVEF).
After Week 6, additional study visits will occur at Week 8 (±7 days), Week 12 (±7 days), and every 12 weeks (±7 days) thereafter. Subjects also will be contacted by phone in between clinic visits, at Week 18 and every 12 weeks thereafter. An end of study (EOS) visit will occur 12 weeks (±7 days) after the last administration of study drug. Visits (including the Screening visit which serves as the baseline) will entail recording vital signs, targeted physical examination, ECGs, safety laboratory tests, N-terminal pro b-type natriuretic peptide (NT-proBNP), adverse events (AEs), New York Heart Association (NYHA) functional class, Kansas City Cardiomyopathy Questionnaire (KCCQ) score, and concomitant medications. At Weeks 4, 8, 24, 36, 48, 60, 72, 96, 120, 144, 156/early termination (ET), and 168/EOS, a predose blood sample for assessment of drug concentration will be obtained. A standard TTE (including but not limited to assessment of LVOT gradient at rest and after Valsalva) will be performed at baseline, at Weeks 4, 8, 12, 24, 36, 48, 72, 96, 120, 144, 156/ET, and 168/EOS. In addition, a stress echocardiogram (with assessment of LVOT gradient post-exercise) will also be performed at baseline, Weeks 4, 48, 72, 156/ET, and 168/EOS.
The study endpoints include safety, tolerability, and select measures of efficacy using individualized dosing. Key measurements include LVOT gradient, LVEF, NT-proBNP.
• 1. Frequency and severity of treatment-emergent AEs and SAEs, • 2. Frequency of cardiovascular (CV) death, • 3. Frequency of sudden death, • 4. Frequency of CV hospitalization, • 5. Frequency of heart failure requiring the initiation of oral loop diuretics or the administration of intravenous loop diuretics, • 6. Frequency of myocardial infarction, • 7. Frequency of ventricular arrhythmias (ventricular tachycardia, ventricular fibrillation, ventricular flutter, torsade de pointe), • 8. Frequency of syncope, • 9. Frequency of seizures, • 10. Frequency of stroke, • 11. Frequency of LVEF≤45 as measured by echocardiography, • 12. QT and QTcF intervals over time. Efficacy and Pharmacodynamics Include: • 1. Post-exercise, post-Valsalva, and resting LVOT gradient over time, • 2. NYHA functional class over time, • 3. KCCQ scores over time, • 4. NT-proBNP over time, • 5. Frequency of septal reduction therapy.

Data set [2] deals with Yucatan mini-pigs with a heterozygous MYH7 R403Q mutation. Put plainly: Chronic MYK-581 in mini-pig genetic model of non-obstructed HCM (cMR imaging, invasive hemodynamics, dobutamine challenge). It is filed as in vivo. The settings on record: corrected for plasma protein binding and potency differences MYK-581 vs mavacamten. The method, then: The mini-pigs were treated for at least 12 weeks and were evaluated as shown in Schematic 1 below. […] After ˜14 weeks of treatment, all pigs underwent in vivo cMR imaging for the assessment of LV function and geometry, as well as of myocardial composition via of Late Gadolinium Enhancement (LGE) and T1 mapping techniques including extracellular volume (ECV) assessments. In addition, a subset of animals (MYK: n=6, CTRL: n=5) also underwent terminal invasive hemodynamics assessments, including cardiac output (CO, via thermodilution), load-independent systolic/diastolic function (via LV pressure-volume relationships), and β-adrenergic (β-AR) cardiac reserve (via dobutamine at 5 ug/kg/min IV).
The mini-pig model can be obtained following the method disclosed in a presentation entitled “A Minipig Genetic Model of Hypertrophic Cardiomyopathy Uncovers the Pathophysiological Mechanisms of Disease Evolution”, by E. Green et al., at University of Iowa, Carver College of Medicine.

As for `CC(C)n1c(=O)cc(N[C@@H](C)c2ccccc2)[nH]c1=O` [mavacamten, (S)-3-Isopropyl-6-((1-phenylethyl)amino)pyrimidine-2, 4(1H,3H)-dione], the “cardiac-related adverse events attributed to study drug” value in data set [1] (48-week period) was “no cardiac-related adverse events (AEs) attributed to study drug”. The “E/e′ lateral, mean” value is recorded as −3.4 in data set [1] (Change from Baseline to Week 48); 9.8 in data set [1] (Week 12); 10.2 in data set [1] (Week 24); 8.5 in data set [1] (Week 36); 9.1 in data set [1] (Week 48). The “IVS (interventricular septal thickness), mean” value came out at 16.0 mm in data set [1] (Week 12); 15.9 ± 2.7 mm in data set [1] (Week 12, listed as Mavacamten); 15.8 mm in data set [1] (Week 24); 15.8 ± 2.7 mm in data set [1] (Week 24, listed as Mavacamten); 15.4 mm in data set [1] (Week 36); 15.4 ± 2.7 mm in data set [1] (Week 36, listed as Mavacamten). Also, the “IVS (interventricular septal thickness), mean” value in data set [1] (Week 48) was 15 mm and 15.3 mm; in data set [1] (Week 48, listed as Mavacamten) it was 15.5 ± 2.0 mm. Also, the “IVS (interventricular septal thickness), mean change from baseline” value in data set [1] (Week 48) is −1.5 mm; in data set [1] (Week 48, listed as Mavacamten), −1.2 mm and −1.2 ± 2.3 mm. Besides, in data set [1] (Week 48), the “LVEF, mean change from baseline” value is −1.8%. Moreover, in data set [1] (Week 48), the “NT-proBNP, median” value was 136.5 pg/mL. In data set [1] (Week 48), the “patients who achieved a post-exercise LVOT gradient <30 mm Hg” value is “Five”. Further, the “median NT-proBNP, change from baseline” value in data set [1] (Week 60) was -481 pg/mL. Further, the LVEF maintained result in data set [1] (all patients at all timepoints) is “above 50%”. For the same molecule, the “AEs considered potentially related to study drug” value in data set [1] (in 3 subjects, 7 mild, 1 moderate) is reported as 8. Also, the “equivalent human plasma concentrations” value in data set [2] lay within 50 to 250 ng/mL.
